Results taken from patent US8748395B2, “Cell-permeable peptide inhibitors of the JNK signal transduction pathway” (Xigen Inflammation Ltd., priority 2006, dated 2014).

Columns and labels:
βTC-3 cells = experiment: Inhibition of IL-1β induced pancreatic β-cell death by TAT-IB peptides; assay type: cell-based
Procedure: We investigated the effects of the inventive L-TAT-IB(s) peptides on the promotion of β-cell apoptosis elicited by IL-1. PTC-3 cell cultures were incubated for 30 minutes with 1 μM of inventive L-TAT-IB1(s) peptides followed by 10 ng/mL of IL-1. A second addition of peptide (1 μM) was performed 24 hours later. Apoptotic cells were counted after two days of incubation with IL-1β using propidium iodide (red stained cell are dead cells) and Hoechst 33342 (blue stained cell are cells with intact plasma membrane) nuclear staining.
Long term inhibition of IL-1 induced cells death was examined by treating βTC-3 cells as described above, except that incubation of the cells with the peptides and IL-1β was sustained for 12 days. Additional peptides (1 μM) were added each day and additional IL-1β (10 ng/mL) was added every 2 days. […] Taken together, these experiments provide evidence that inventive TAT-IB(s) peptides are biologically active molecules able to prevent the effects of JNK signaling on cell fate.
Inhibition of IL-1β induced pancreatic β-cell death by the inventive D-TAT-IB1(s) peptide was analyzed. βTC-3 cells were incubated as described above for 30 minutes with one single addition of the indicated peptides (1, μM), then IL-1 (10 ng/ml) was added.
Apoptotic cells were then counted after two days of incubation with IL-1β by use of Propidium Iodide and Hoechst 33342 nuclear staining. A minimum of 1,000 cells were counted for each experiment. Standard Error of the Means (SEM) are indicated, n=5.
Long term inhibition of IL-1P induced cell-death by the D-TAT-IB1 peptide was also analyzed. βTC-3 cells were incubated as above for 30 minutes with one single addition of the indicated peptides (1 μM), then IL-1β (10 ng/ml) was added, followed by addition of the cytokine every two days. Apoptotic cells were then counted after 15 days of incubation with IL-1 by use of propidium iodide and Hoechst 33342 nuclear staining. […] A minimum of 1.000 cells were counted for each experiment.

WiDr cells = experiment: Irradiation (30 Gy) induced apoptosis of WiDr cells; assay type: cell-based, human; conditions: 1 μM added 30 minutes before 30 Gy, analyzed 48 hours later
Procedure: JNK is also activated by ionizing radiation. To determine whether inventive TAT-IB(s) peptides would provide protection against radiation-induced JNK damage, “WiDr” cells were irradiated (30 Gy) in presence or absence of D-TAT, inventive L-TAT-IB1(s) or inventive D-TAT-IB1(s) peptides (1 μM added 30 minutes before irradiation). Control cells (CTRL) were not irradiated. Cells were analyzed 48 hours later by means of PI and Hoechst 3342 staining, as described above. N=3, SEM are indicated.

AP-1 DNA binding complex = experiment: Gel retardation assay with AP-1 probe, HeLa cell nuclear extracts, TNF-α; assay type: cell-based; conditions: peptide added 30 minutes before TNF-α 5 ng/ml
gerbil = conditions: in vivo; cited from earlier work
JNK = conditions: JBDs; cited from earlier work
[1] = tested on: primary embryonic cultures and differentiated PC12 cells; conditions: dosages that inhibit activation of JNKs; cited from earlier work
βTC-3 cell cultures = experiment: Cellular import of fluorescein-labeled TAT and TAT-IB1(s) peptides; assay type: cell-based
Procedure: The ability of the L- and D-enantiomeric forms of TAT and inventive TAT-IB1(s) peptides (“TAT-IB peptides”) to enter cells was evaluated. L-TAT, D-TAT, inventive L-TAT-IB1(s), and inventive D-TAT-IB1(s) peptides [SEQ ID NOs: 5, 6, 9 and 12, respectively] were labeled by N-terminal addition of a glycine residue conjugated to fluorescein. Labeled peptides (1 μM) were added to βTC-3 cell cultures, which were maintained as described in Example 3. At predetermined times cells were washed with PBS and fixed for five minutes in ice-cold methanol-acetone (1:1) before being examined under a fluorescence microscope. Fluorescein-labeled BSA (1 μM, 12 moles/mole BSA) was used as a control.

[2] = tested on: recombinant JNK1, JNK2 and JNK3; experiment: Solid phase kinase assay: JNK-mediated phosphorylation of c-Jun, ATF2 and Elk1; assay type: biochemical
Procedure: (§1) The effects of the peptides on JNKs-mediated phosphorylation of their target transcription factors were investigated in vitro. Recombinant and non activated JNK1, JNK2 and JNK3 were produced using a TRANSCRIPTION AND TRANSLATION rabbit reticulocyte lysate kit (PROMEGA®) and used in solid phase kinase assays with c-jun, ATF2 and Elk1, either alone or fused to glutathione-S-transferase (GST), as substrates. Dose response studies were performed wherein inventive L-TAT or L-TAT-IB1(s) peptides (0-25 μM) were mixed with the recombinant JNK1, JNK2, or JNK3 kinases in reaction buffer (20 mM Tris-acetate, 1 mM EGTA, 10 mM p-nitrophenyl-phosphate (pNPP), 5 mM sodium pyrophosphate, 10 mM p-glycerophosphate, 1 mM dithiothreitol) for 20 minutes. The kinase reactions were then initiated by the addition of 10 mM MgCl2 and 5 pCi^33P-γ-dATP and 1 μg of either GST-Jun (aa 1-89), GST-AFT2 (aa 1-96) or GST-ELK1 (aa 307-428). GST-fusion proteins were purchased from Stratagene (La Jolla, Calif.).
(§2) Ten μL of glutathione-agarose beads were also added to the mixture. Reaction products were then separated by SDS-PAGE on a denaturing 10% polyacrylamide gel. Gels were dried and subsequently exposed to X-ray films (Kodak).
The ability of D-TAT, inventive D-TAT-IB1(s) and inventive L-TAT-IB1 (s) peptides (0-250 μM dosage study) to inhibit GST-Jun (aa 1-73) phosphorylation by recombinant JNK1, JNK2, and JNK3 by were analyzed as described above. Overall, D-TAT-IB1(s) peptide decreased JNK-mediated phosphorylation of c-Jun, but at levels approximately 10-20 fold less efficiently than L-TAT-IB1(s).

[3] = tested on: JNKs activated by stressful stimuli; experiment: c-Jun phosphorylation by activated JNKs pulled down with GST-Jun from UV-irradiated HeLa or IL-1β treated βTC-3 cells; assay type: biochemical; conditions: 25 μM peptide, 20 minutes
Procedure: The effects of the L-TAT or inventive L-TAT-IB1(s) peptides on JNKs activated by stressful stimuli were evaluated using GST-Jun to pull down JNKs from UV-light irradiated HeLa cells or IL-1β treated PTC cells. PTC cells were cultured as described above. HeLa cells were cultured in DMEM medium supplemented with 10% Fetal Calf Serum, 100 μg/mL Streptomycin, 100 units/ml Penicillin and 2 mM Glutamine. One hour prior to being used for cell extract preparation, PTC cells were activated with IL-1β as described above, whereas HeLa cells were activated by UV-light (20 J/m^2). Cell extracts were prepared from control, UV-light irradiated HeLa cells and IL-1β treated βTC-3 cells by scraping the cell cultures in lysis buffer (20 mM Tris-acetate, 1 mM EGTA, 1% Triton X-100, 10 mM p-nitrophenyl-phosphate, 5 mM sodium pyrophosphate, 10 mMP-glycerophosphate, 1 mM dithiothreitol). Debris was removed by centrifugation for five minutes at 15,000 rpm in an SS-34 Beckman rotor. One-hundred μg extracts were incubated for one hour at room temperature with one μg GST-jun (amino acids 1-89) and 10 μL of glutathione-agarose beads (Sigma). Following four washes with the scraping buffer, the beads were resuspended in the same buffer supplemented with L-TAT or inventive L-TAT-IB1(s) peptides (25 μM) for 20 minutes. […]

JNK3 = biological target: T1, JNK3 (Homo sapiens, UniProt P53779); experiment: Solid phase kinase assay: JNK3 phosphorylation of Elk1; assay type: biochemical; conditions: dose response 0-25 μM, GST-ELK1 (aa 307-428)
T1 construct: host or cells: rabbit reticulocyte lysate, in vitro transcription/translation
Procedure: as §1, §2

[4] = tested on: activation of c-Jun by JNK; experiment: GAL4 reporter system (GAL-Jun, 5xGAL-LUC) in HeLa cells with MKK4/MKK7 co-transfection; assay type: cell-based
Text: To determine whether the inventive cell-permeable peptides could block JNK signaling in vivo, we used a heterologous GAL4 system. HeLa cells, cultured as described above, were co-transfected with the 5×GAL-LUC reporter vector together with the GAL-Jun expression construct (Stratagene) comprising the activation domain of c-jun (amino acids 1-89) linked to the GAL4 DNA-binding domain. Activation of JNK was achieved by the co-transfection of vectors expressing the directly upstream kinases MKK4 and MKK7 (see Whitmarsh et al., Science 285: 1573 (1999)). Briefly, 3×10^5 cells were transfected with the plasmids in 3.5-cm dishes using DOTAP (Boehringer Mannheim) following instructions from the manufacturer. For experiments involving GAL-Jun, 20 ng of the plasmid was transfected with 1 μg of the reporter plasmid pFR-Luc (Stratagene) and 0.5 μg of either MKK4 or MKK7 expressing plasmids. Three hours following transfection, cell media were changed and TAT and TAT-IB1(s) peptides (1 μM) were added. The luciferase activities were measured 16 hours later using the “Dual Reporter System” from PROMEGA® after normalization to protein content. […] Because HeLa cells express JNK1 and JNK2 isoforms but not JNK3, we transfected cells with JNK3.

T1 sequence (P53779 whole entry, species assumed, the tested form may be a part): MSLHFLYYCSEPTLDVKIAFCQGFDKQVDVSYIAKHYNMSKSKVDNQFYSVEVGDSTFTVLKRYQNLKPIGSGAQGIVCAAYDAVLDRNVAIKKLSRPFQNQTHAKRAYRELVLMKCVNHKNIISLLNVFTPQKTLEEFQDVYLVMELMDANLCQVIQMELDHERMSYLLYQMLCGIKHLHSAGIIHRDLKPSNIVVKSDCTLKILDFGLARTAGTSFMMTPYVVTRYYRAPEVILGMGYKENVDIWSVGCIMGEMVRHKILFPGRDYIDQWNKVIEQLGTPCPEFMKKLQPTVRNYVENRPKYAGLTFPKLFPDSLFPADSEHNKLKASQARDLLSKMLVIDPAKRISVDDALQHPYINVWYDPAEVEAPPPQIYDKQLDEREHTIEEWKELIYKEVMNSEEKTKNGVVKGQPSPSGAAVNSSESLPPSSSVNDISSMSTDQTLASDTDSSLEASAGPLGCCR

With “TDQSRPVQPFLNLTTPRKPRYTDPPRRRQRRKKRG (TDQSRPVQPFLNLTTPRKPRYTDPPRRRQRRKKRG) [D-TAT-IB1, reference compound]” the “decrease of IL-1 induced apoptosis” value (βTC-3 cells; one single addition of peptide 1 μM, two days of IL-1β) was “decreased IL-1 induced apoptosis to a similar extent as L-TAT-IB peptides”.
With “H-GRKKRRQRRRPPRPKRPTTLNLFPQVPRSQD-OH [L-TAT-IB1(s)]” the “prevention of irradiation induced apoptosis” value (WiDr cells) was “able to prevent irradiation induced apoptosis” and the “formation of the AP-1 DNA binding complex” value (AP-1 DNA binding complex) was “decrease the formation of the AP-1 DNA binding complex in the presence of TNF-α”.
In the case of N#CC(c1ccnc(NCCc2cccnc2)n1)c1nc2ccccc2s1 (centres unmarked) [AS601245], the “protection against delayed loss of hippocampal CA1 neurons” value (gerbil) is given as “significant protection against the delayed loss of hippocampal CA1 neurons”.
For “IPSPSVEEPH KHRPTTLRLT TLGAQDS (IPSPSVEEPHKHRPTTLRLTTLGAQDS) [IB2]”, the “efficiency in binding JNK relative to c-Jun or ATF2” value (JNK) is listed as “approximately 100 fold”.
For CCSCc1ccc2c(c1)c1c3c(c4c5cc(CSCC)ccc5n5c4c1n2[C@H]1C[C@](O)(C(=O)OC)[C@]5(C)O1)CNC3=O [CEP-1347], the neuronal survival [1] is given as “promotes neuronal survival at dosages that inhibit activation of the c-Jun amino-terminal kinases (JNKs)”.
With “NH2-GRKKRRQRRR-COOH (H-GRKKRRQRRR-OH) [L-TAT]” the “entry of fluorescein labeled peptide into cells” value (βTC-3 cell cultures; 1 μM labeled peptide added to culture medium, fluorescence microscope) was “efficiently and rapidly (less than five minutes) entered cells”.
For “NH2-RRRQRRKKRG-COOH (D-amino acids) [D-TAT]”, the “stability inside the cells” value (βTC-3 cell cultures) was “extremely stable inside the cells”.
With “TAT-IB(s): enantiomer not worded; the examples concerned name L-TAT-IB1(s) (SEQ ID NO: 9) as the tested peptide (GRKKRRQRRRPPRPKRPTTLNLFPQVPRSQD)” the “inhibition of JNK family phosphorylation of target transcription factors, overall” value [2] was “superior effects in inhibiting JNK family phosphorylation of their target transcription factors”, the “peptide dose giving nearly complete inhibition of c-Jun, ATF2 and Elk1 phosphorylation by JNKs” value ([2]; dose response 0-25 μM, doses as low as) was 2.5 µM and the “prevention of phosphorylation of c-Jun by activated JNKs” value [3] was “efficiently prevented phosphorylation of c-Jun by activated JNKs”. The “inhibition of JNK3 phosphorylation of Elk1” value (JNK3) was “absence of TAT-IB(s) inhibition of JNK3 phosphorylation of Elk1”, the “inhibition of IL-1-induced apoptosis” value (βTC-3 cells; 1 μM peptide, second addition at 24 hours, IL-1β 10 ng/mL for two days) was “inhibited IL-1-induced apoptosis of βTC-3 cells” and the “long term protection against IL-1 induced apoptosis” value (βTC-3 cells; 12 days, peptide 1 μM added each day, IL-1β every 2 days) was “confers strong protection against apoptosis”. For the same compound, the “activation of c-Jun following MKK4 and MKK7 mediated activation of JNK (luciferase)” value ([4]; 1 μM peptide, luciferase measured 16 hours later) was “blocked activation of c-Jun following MKK4 and MKK7 mediated activation of JNK” and the “activation of c-Jun in cells transfected with JNK3” value ([4]; HeLa cells transfected with JNK3, 1 μM peptide) was “inhibited JNK2 mediated activation of c-Jun”.
In the case of “PGTGCGDTYR PKRPTTLNLF PQVPRSQDT (PGTGCGDTYRPKRPTTLNLFPQVPRSQDT) [IB1]”, the “efficiency in binding JNK relative to c-Jun or ATF2” value (JNK) is listed as “approximately 100 fold”.
